Settings: Liquid, Bellows volumetry

CC1CCCCC1 [methylcyclohexane]
mass density [kg/m3]
Settings	410 K	450 K	500 K	550 K	600 K
10000 kPa	680.503	645.737	595.224	537.032	–
12000 kPa	–	–	–	–	485.331
20000 kPa	695.044	664.914	623.145	579.029	532.582
30000 kPa	707.272	680.595	643.213	605.816	567.711
40000 kPa	717.821	693.215	659.481	626.206	592.364
50000 kPa	727.698	704.34	672.946	642.447	611.576
60000 kPa	736.124	714.464	684.828	656.179	627.511
70000 kPa	743.853	723.281	695.54	668.08	641.114
80000 kPa	750.846	731.598	704.872	678.738	653.239
90000 kPa	757.777	739.304	713.602	688.637	664.012
100000 kPa	764.111	746.296	721.454	697.29	673.632
120000 kPa	776.018	759.037	735.845	713.086	690.895
140000 kPa	786.383	770.433	748.645	726.911	705.698
160000 kPa	795.899	780.708	759.878	739.33	718.93
180000 kPa	804.482	790.183	770.353	750.159	730.911
200000 kPa	812.647	798.897	779.786	760.464	741.384

Source: the NIST ThermoML archive (doi:10.1007/s10765-017-2241-7)
